Holding throughout (format): cell-based
Experiment [1] concerns E. coli EC1061 (NDM-1 CMY-6). The experiment is described as follows: Aztreonam/Tigemonam MIC at various concentrations of BLI. The following applies: for MIC: Escherichia coli, E. coli EC1061, read-out: Tigemonam MIC. How it is done: MIC values for each bacterial strain were measured for each antimicrobial compound at various concentrations of each BLI. […]
Experiment [2] concerns bacterial strains that expressed the beta-lactamase, NDM-1 and CMY-6. Briefly: Aztreonam/Tigemonam MIC at various concentrations of BLI (summary). As for the experimental part: (§1) MIC values for each bacterial strain were measured for each antimicrobial compound at various concentrations of each BLI.
Experiment [3] relates to K. pneumoniae KP1081 (NDM-1, CMY-6, SHV-11, CTX-M-15, TEM-1). The experiment is described as follows: Aztreonam/Tigemonam MIC at various concentrations of BLI. The following applies: KP1081. How it is done:
as §1

Experiment [4] concerns E. coli EC1061 (NDM-1 CMY-6). Described as above. The following applies: Compound 68 0 μg/ml.

By MIC is commonly meant the lowest concentration that inhibits growth of the organism.

≈ marks a conversion by molar mass, not a printed value. Where two headings read alike, the source gives them in different places.

For `O=C(O)C[C@H]1C=CC[C@H](NC(=O)Cc2cccs2)B(O)O1` [Compound 68, 2-((3R,7S)-2-hydroxy-3-(2-(thiophen-2-yl)acetamido)-2,3,4,7-tetrahydro-1,2-oxaborepin-7-yl)acetic acid], the MIC in experiment [1] (with 0.31 μg/ml Compound A) was 0.5 µg/mL (≈ 1.62 µM). The “effect on Aztreonam or Tigemonam MICs” value in experiment [2] was “decreased the Aztreonam or Tigemonan MICs”.
Turning to `CC1(C)[C@H](NC(=O)/C(=N\OCC(=O)O)c2csc(N)n2)C(=O)N1OS(=O)(=O)O` [Tigemonam, reference compound], the “Tigemonam MIC (μg/ml) in the presence of BLI” value in experiment [1] (EC1061, Compound 5 0 μg/ml) came to 8 µg/mL; in experiment [3] (Compound 5 0 μg/ml) it was 16 µg/mL; in experiment [3] (Compound 68 0 μg/ml), 16 µg/mL; in experiment [4], 16 µg/mL. Further, in experiment [1] (tigemonam alone), the MIC was 8 µg/mL (≈ 18.3 µM).

These data come from patent US20150119363A1, “METHODS OF TREATING BACTERIAL INFECTIONS” (Rampex Pharmaceuticals, Inc., priority 2012, published 2015).
